{"source": "patent US12194024B2", "about": "“Pharmaceutical composition of MDM2 inhibitor and use thereof for preventing and/or treating disease” (ASCENTAGE PHARMA (SUZHOU) CO., LTD., priority 2019, dated 2025)", "key": {"[1]": {"test_system": "SKM-1", "experiment": "CellTiter-Glo (CTG) cell proliferation experiment", "format": "cell-based", "conditions": "Homo sapiens, TP53 mut, 72 hours, read-out: IC50 values, nM (Mean ± SD, n = 2 or 3)"}, "[2]": {"test_system": "MOLM-13", "experiment": "CellTiter-Glo (CTG) cell proliferation experiment", "format": "cell-based", "conditions": "Homo sapiens, TP53 wt, FLT3-ITD, 72 hours, read-out: IC50 values, nM (Mean ± SD, n = 2 or 3)"}, "[3]": {"test_system": "human MOLM-13 (AML) xenograft tumor", "experiment": "Systemic MOLM-13 AML mouse xenograft model", "format": "in vivo, NOD SCID mice", "description": "The comparison among three or more groups uses one-way ANOVA. If the F value has a significant difference, multiple comparisons should be carried out after the ANOVA analysis. All data analysis uses SPSS 18.0. Prism (the sixth version) is used for graphing. Attune N×T flow cytometer (Thermo Fisher Scientific Inc.) is used for analyzing tumor infiltrating lymphocytes. Data acquisition and analysis use Analyst Software 1.6.3 work station (AB sciex, Ontario, Canada). For MOLM-13 systemic model, the death date of the last mouse is used for analyzing the median total survival and generating the Kaplan-Meier curve. Logarithmic rank test and Bonferroni multiple test are used for comparing the survival curves of different treatment groups.\nFor systemic AML model, six- to eight-week-old female NOD SCID mice are pretreated with cyclophosphamide (150 mg/kg, intraperitoneally) continuously for two days. Then the MOLM-13 systemic AML xenograft model is established by inoculating 1×10^7 cells into the caudal vein intravenously.\nFor systemic AML model, the six- to eight-week-old female NOD SCID mice are pretreated with cyclophosphamide (150 mg/kg, intraperitoneally) continuously for two days. Then the MOLM-13 systemic AML xenograft model is established by inoculating 1×10^7 cells into the caudal vein intravenously. Cells grow 3 days, then are randomly divided into groups for treatment of a single drug or drugs in combination using a carrier, compound 2 (50 mg/kg, is taken orally each day for 7 days), and Aza (1.5 mg/kg, intravenous injection each day for 7 days). In the treatment process and after the treatment is completed, the mice are monitored for the occurrence of hind leg paresis (HLP) or the abdominal swelling caused by disease progression, and a body weight loss >20%.\nA systemic MOLM-13 mouse xenograft model is established, and the anti-leukemia effect of compound 2 following the administration regimen of 80 mg/kg dosage, orally (po), and once every two days (q2d) is evaluated in the model (corresponding to the number 57 regimen in table 7). The experiment has two groups, and 15 animals in each group, in one group, 5 animals are used for the analysis of the proportion of CD45+ AML cells, and the remaining 10 animals are used for recording the living condition of the mice. 18 days after the cell inoculation, according to the experimental regimen, 5 animals are selected randomly from each group, bone marrow and spleen are collected, the proportion of human CD45+ AML cells in bone marrow and spleen is analyzed using flow cytometry to evaluate the disease burden of animals.\nSystemic tumor model is established by inoculating MOLM-13 tumor cells through caudal vein, the administration starts on the third day after the cell inoculation, and the day of the administration is defined as the first day. Compound 2 is administered following 30 mg/kg, q2d regimens for 21 days. Azacitidine is administered following 1.5 mg/kg, qd regimens for seven days (corresponding to the number 81 regimen in table 7). […]"}, "[4]": {"test_system": "dimethylbenzanthracene-induced rat myelodysplastic syndrome (MDS)", "experiment": "Dimethylbenzanthracene-induced rat myelodysplastic syndrome (MDS) model", "format": "in vivo, SD rat", "conditions": "p.o., q2d×21 d; for average WBCB value of bone marrow: MDS model group 16.89±2.75; for average PLT value of bone marrow: MDS model group 52±2.49", "description": "Multiple human-derived rat MDS model is used for evaluating the in vivo anti-tumor effect of compound 2 alone.\nThe rat myelodysplastic syndrome (MDS) model is constructed using a chemical mutagenic agent dimethylbenzanthracene (DMBA). in the rat MDS model, the changes of myelogram and hemogram are similar to that of human myelodysplastic syndromes, and it is confirmed that it can be used for the anti-MDS effect study of drugs. DMBA is administered at 50 mg/kg, i.v. Following the once per week regimen for 4 weeks totally to establish the rat MDS model. One week after the end of DMBA administration (day 28), peripheral blood is collected from the caudal vein for routine blood test to determine whether the model is established successfully.\nThe animals are randomly divided into groups according to the PLT level on day 28, wherein a vehicle control group (Vehicle), two dosage groups of compound 2 (10 mg/kg) and compound 2 (30 mg/kg) (corresponding to the number 23 regimen in table 3), and healthy control group (naive) are totally set, each group has 5 animals.\nCompound 2 is administered following 10 mg/kg or 30 mg/kg, p.o., q2d×21 d regimens. After the administration, the peripheral blood and bone marrow cells from each group of animals for routine blood analysis."}, "[5]": {"test_system": "MOLM-13 cells", "experiment": "Annexin V-FITC/PI apoptosis by flow cytometer", "format": "cell-based, human", "conditions": "48 hours", "description": "The activation of P53 signaling pathway can induce apoptosis, cycle arrest, or senility of cells. […] Therefore, Annexin V-PI fluorescence probe and flow cytometer are used for analyzing the apoptosis of MOML-13 cells after being treated with compound 2 alone or in combination with Decitabine, Azacitidine or Cytarabine (Ara-C)."}, "[6]": {"test_system": "MV-4-11", "experiment": "CellTiter-Glo (CTG) cell proliferation experiment", "format": "cell-based", "conditions": "Homo sapiens, MV4-11, TP53 wt, FLT3-ITD, 72 hours, read-out: IC50 values, nM (Mean ± SD, n = 2 or 3)"}, "[7]": {"test_system": "OCI-AML-3", "experiment": "CellTiter-Glo (CTG) cell proliferation experiment", "format": "cell-based", "conditions": "Homo sapiens, TP53 wt, FLT3 wt, 72 hours, read-out: IC50 values, nM (Mean ± SD, n = 2 or 3)"}, "[8]": {"conditions": "80 mg/kg, p.o., q2d × 3 w, versus vehicle"}, "[9]": {"conditions": "80 mg/kg, po, q2d, 18 days after cell inoculation"}}}
{"smiles": "CCN1[C@@H](C(=O)NC23CCC(C(=O)O)(CC2)CC3)[C@H](c2cccc(Cl)c2F)[C@]2(C(=O)Nc3cc(Cl)ccc32)C12CCCCC2", "note": "[Compound 2]", "values": [{"measurement": "IC50", "setting": "[1]", "value": "8950 ± 570", "unit": "nM"}, {"measurement": "IC50", "setting": "[2]", "value": "26.8 ± 4.9", "unit": "nM"}, {"measurement": "Median survival", "setting": "[3]; 80 mg/kg, p.o., q2d × 3 w, vehicle 18.5 days", "value": 37.0, "unit": "days"}, {"measurement": "Prolonged days of survival", "setting": "[3]; [8]", "value": 18.5, "unit": "days"}, {"measurement": "prolongation of median survival", "setting": "[3]; [8]", "value": 100, "unit": "%"}, {"measurement": "proportion of human CD45+ AML cells in bone marrow", "setting": "[3]; [9]", "value": "less than 0.1%"}, {"measurement": "proportion of human CD45+ AML cells in spleen", "setting": "[3]; [9]", "value": "less than 0.1%"}, {"measurement": "Median survival", "setting": "[3]; Compound 2 30 mg/kg q2d 21 days, Azacitidine 1.5 mg/kg qd seven days, vehicle 16 days", "value": 24, "unit": "days"}, {"measurement": "Prolonged survival", "setting": "[3]; Compound 2 30 mg/kg q2d 21 days, Azacitidine 1.5 mg/kg qd seven days, versus vehicle", "value": 8, "unit": "days"}, {"measurement": "minimum effective dosage", "setting": "[3]; compound 2 alone, human MOLM-13 systemic xenograft", "value": 20, "unit": "mg/kg"}, {"measurement": "average WBCB value of bone marrow", "setting": "[4]; 10 mg/kg", "value": "47.5±10.13", "unit": "cells/μl"}, {"measurement": "average PLT value of bone marrow", "setting": "[4]; 10 mg/kg", "value": "116±9.35", "unit": "cells/μl"}, {"measurement": "average WBCB value of bone marrow", "setting": "[4]; 30 mg/kg", "value": "62.53±13.08", "unit": "cells/μl"}, {"measurement": "average PLT value of bone marrow", "setting": "[4]; 30 mg/kg", "value": "124.2±23.8", "unit": "cells/μl"}, {"measurement": "MOLM-13 cells being apoptotic (Annexin V+ cells)", "setting": "[5]; 40 nM", "value": "about 31.0%"}, {"measurement": "MOLM-13 cells being apoptotic (Annexin V+ cells)", "setting": "[5]; 110 nM", "value": "~55.1", "unit": "%"}, {"measurement": "MOLM-13 cells being apoptotic (Annexin V+ cells)", "setting": "[5]; 1000 nM", "value": "~96.8", "unit": "%"}, {"measurement": "IC50", "setting": "[6]", "value": "166 ± 42.4", "unit": "nM"}, {"measurement": "IC50", "setting": "[7]", "value": "316 ± 97", "unit": "nM"}]}
